Experimental data taken from patent publication US7019023B2, “Benzothiepine 1, 1-dioxide derivatives, a process for their preparation, pharmaceuticals comprising these compounds, and their use” (Aventis Pharma Deutschland GmbH, priority 1998, dated 2006).

Test system: bile acid transport in the ileum and the fecal excretion of bile acids
Test: ED200 excretion: fecal excretion of 14C-taurocholate in the rat after oral administration twice daily
Type: in vivo
Settings: Rattus norvegicus, po, 24 h, twice daily for one day, male Wistar rats; dose which increases fecal excretion of 14C taurocholic acid to 200% of control; diastereomer mixture unless stated
Experimental: The biological testing of the compounds according to the invention was carried out by determination of the ED200 excretion. This testing investigates the action of the compounds according to the invention on the bile acid transport in the ileum and the fecal excretion of bile acids in the rat after oral administration twice daily. The diastereomer mixtures of the compounds were tested.
The following recipe was used for the formulation of an aqueous solution:
the substances were dissolved in adequate volumes of an aqueous solution comprising Solutol (=polyethylene glycol […] hydroxystearate; BASF, Ludwigshafen, Germany; Batch No. 1763), so that a final concentration of 5% of Solutol is present in the aqueous solution. The solutions/suspensions were administered orally in a dose of 5 ml/kg. 2) Experimental Conditions
Male Wistar rats (Kastengrund, Hoechst AG, weight range 250–350 g) were kept in groups of 6 animals each and received a standard feed mixture (Altromin, Lage, Germany) from 10 days before the start of treatment (day 1) with a reversed day/night rhythm (4.00–16.00 dark, 16.00–4.00 light). Three days before the start of the experiment (day 0), the animals were divided into groups of 4 animals each.
After intravenous or subcutaneous administration of 5 μCi of ^14C-taurocholate per rat (day 0), the vehicles or test substances were given at 7.00–8.00 and at 15.00–16.00 on the following day (day 1) (treatment for one day).
Stool samples for the analysis of C-taurocholate were taken every 24 hours directly after the administration of the morning dose. The feces were weighed, stored at −18° C. and later suspended in 100 ml of demineralized water and homogenized (Ultra Turrax, Janke & Kunkel, IKA-Werk). Aliquot parts (0.5 g) were weighed and combusted on combustion lids (Combusto Cones, Canberra Packard) in a combustion apparatus (Tri Carb® 307 combuster Canberra Packard GmbH, Frankfurt am Main, Germany). The resulting ^14CO2 was absorbed with Carbo-Sorb® (Canberra Packard). The following ^14C radioactivity measurements were determined after addition of the scintillator (Perma-Fluor complete scintillation cocktail No. 6013187, Packard) to the samples with the aid of liquid scintillation counting (LSC). The fecal excretion of ^14C-taurocholic acid was calculated as a cumulative and/or percentage residual radioactivity (see below).
The fecal excretion of ^14C-TCA was determined in combusted aliquot parts of the stool samples taken at 24-hour intervals, calculated as the “cumulative percentage” of the administered activity and expressed as a % of the residual activity (=remaining activity, i.e. administered activity minus the already excreted activity). For the calculation of the dose-response curves, the excretion of ^14C taurocholic acid was expressed as a percentage proportion of the corresponding values of the control group (treated with vehicle). The ED200, i.e. the dose which increases the fecal excretion of ^14C taurocholic acid to 200% of the control group, is calculated from a sigmoid or linear dose-response curve by interpolation. The calculated ED200 corresponds to a dose which doubles the fecal excretion of bile acids.

Question: Which ED (200% of control) does the source give for `CCCCC1(CCCC)CS(=O)(=O)c2ccc(N(C)C)cc2[C@@H](c2cccc(NC(=O)[C@H](O)[C@@H](O)[C@H](O)[C@H](O)CO)c2)[C@H]1O` [Example 7] here?
Answer: Its ED (200% of control) is 0.04 mg/kg/day.

Question: With `CCCC[C@]1(CC)CS(=O)(=O)c2ccc(N(C)C)cc2[C@@H](c2cccc(NC(=O)CCCC[N+](CC)(CC)CC)c2)[C@H]1O` [Comparison Example 3, reference compound] as the compound, how does the ED (200% of control) read?
Answer: Its ED (200% of control) is 0.9 mg/kg/day.

Question: With `CCCCC1(CCCC)CS(=O)(=O)c2ccc(N(C)C)cc2[C@@H](c2cccc(NC(=O)[C@H](OC(C)=O)[C@@H](OC(C)=O)[C@H](OC(C)=O)[C@@H](COC(C)=O)OC(C)=O)c2)[C@H]1O` [Example 6] as the compound, how does the ED (200% of control) read?
Answer: Its ED (200% of control) is 0.04 mg/kg/day.

Question: `CCCC[C@]1(CC)CS(=O)(=O)c2ccc(N(C)C)cc2[C@@H](c2cccc(NC(=O)[C@H](O)[C@@H](O)[C@H](O)[C@H](O)CO)c2)[C@H]1O` [Example 1] was tested. Which ED (200% of control) did it give?
Answer: The ED (200% of control) was 0.009 mg/kg/day.

Question: `CCCC[C@]1(CC)CS(=O)(=O)c2ccc(N(C)C)cc2[C@@H](c2cccc(NC(=O)CCCCNC(=O)[C@H](O)[C@@H](O)[C@H](O)[C@H](O)CO)c2)[C@H]1O` [Example 9] was tested. Which ED (200% of control) did it give?
Answer: The ED (200% of control) was 0.007 mg/kg/day.

Question: How did the ED (200% of control) turn out when `CCCC[C@]1(CC)CS(=O)(=O)c2ccc(N(C)C)cc2[C@@H](c2cccc(NC(=O)[C@H](OC(C)=O)[C@@H](OC(C)=O)[C@H](OC(C)=O)[C@@H](COC(C)=O)OC(C)=O)c2)[C@H]1O` [Example 2] was run?
Answer: Its ED (200% of control) is 0.008 mg/kg/day.

Question: With `CCCC[C@]1(CC)CS(=O)(=O)c2ccc(N(C)C)cc2[C@@H](c2cccc(NC(=O)CCCCNC(=O)[C@H](OC(C)=O)[C@@H](OC(C)=O)[C@H](OC(C)=O)[C@@H](COC(C)=O)OC(C)=O)c2)[C@H]1O` [Example 8] as the compound, how does the ED (200% of control) read?
Answer: Its ED (200% of control) is 0.007 mg/kg/day.

Question: How did the ED (200% of control) turn out when `CCCC[C@]1(CC)CS(=O)(=O)c2ccc(N(C)C)cc2[C@@H](c2cccc(N)c2)[C@H]1O` [Comparison Example 1, reference compound] was run?
Answer: The ED (200% of control) was 0.8 mg/kg/day.

Question: How did the ED (200% of control) turn out when `CCCC[C@]1(CC)CS(=O)(=O)c2ccc(N(C)C)cc2[C@@H](c2cccc(NC(=O)CCCCN(C[C@H](OC(C)=O)[C@@H](OC(C)=O)[C@H](OC(C)=O)[C@@H](COC(C)=O)OC(C)=O)C(C)=O)c2)[C@H]1O` [Example 10] was run?
Answer: Its ED (200% of control) is 0.04 mg/kg/day.

Question: Which ED (200% of control) does the source give for `CCCC[C@]1(CC)CS(=O)(=O)c2ccc(N(C)C)cc2[C@@H](c2cccc(NC(=O)CCCCBr)c2)[C@H]1O` [Comparison Example 2, reference compound] here?
Answer: Its ED (200% of control) is 1 mg/kg/day.

Same assay, conditions: p.o., twice daily for one day, male Wistar rats; dose which increases fecal excretion of 14C taurocholic acid to 200% of control; diastereomer mixture unless stated

Question: `CCCC[C@]1(CC)CS(=O)(=O)c2ccc(N(C)C)cc2[C@@H](c2cccc(NC(=O)CCCCNC[C@H](O)[C@@H](O)[C@H](O)[C@H](O)CO)c2)[C@H]1O` [Example 3] was tested. Which ED200 excretion did it give?
Answer: Its ED200 excretion is 0.04 mg/kg/day.

Question: With `CCCC[C@]1(CC)CS(=O)(=O)c2ccc(N(C)C)cc2[C@@H](c2cccc(NC(=O)CCCCNC[C@H](O)[C@@H](O)[C@H](O)[C@H](O)CO)c2)[C@H]1O` [3 (pure structure 11a)] as the compound, how does the ED200 excretion read?
Answer: The ED200 excretion was 0.008 mg/kg/day.
